Patent US10086090B2, “Indocyanine compound, synthesis method and purification method thereof, diagnostic composition using the indocyanine compound, and device for measuring biokinetics and device for visualizing circulation using the diagnostic composition” (NATIONAL UNIVERSITY CORPORATION MIE UNIVERSITY, priority 2010, dated 2018)

Assays:
[1] = Solubility tests in water or physiological saline; type: physicochemical; conditions: powder
Method: Solubility tests of ICG and the cyclodextrin-bonded indocyanine compounds of the present invention (the chemical formulae 16, 20, 21, and 23 to 25) in water or physiological saline were performed.

[2] = Molecule association in aqueous solution (optical absorption spectrum); type: physicochemical; conditions: 0.01 mM to 0.1 mM aqueous solutions, 25° C., absorption 600 nm to 1000 nm
Method: The molecule association of ICG and the cyclodextrin-bonded indocyanine compounds of the present invention (the chemical formulae 16, 20, 21, and 23 to 25) in an aqueous solution was studied. Each of 0.01 mM, 0.025 mM, 0.05 mM, and 0.1 mM aqueous solutions including ICG or the cyclodextrin-bonded indocyanine compound of the present invention (each chemical formula 16, 20, 21, and 23 to 25) was prepared, it was put in a quartz cell having a length of an optical path of 1 mm, and an optical absorption spectrum at 600 nm to 1000 nm was measured at 25° C.

[3] = Fluorescence in aqueous solution; type: physicochemical; conditions: 0.1 μM aqueous solution, 25° C., 720 nm excitation; relative to ICG 0.13 in DMSO
Method: The fluorescence of ICG and the cyclodextrin-bonded indocyanine compounds of the present invention (the chemical formulae 16, 20, 21, and 23 to 25) in an aqueous solution was studied. A 0.1 μM aqueous solution including ICG or each of the cyclodextrin-bonded indocyanine compounds of the present invention (the chemical formulae 16, 20, 21, and 23 to 25) was put in a 1 cm square quartz cell at 25° C., which was excited with 720 nm excitation light (bandpass: 10 nm), and a fluorescence spectrum (bandpass: 10 nm) was measured. A fluorescence efficiency was calculated based on a fluorescence efficiency of ICG, 0.13 (in DMSO, at 25° C.). […] The fluorescence quantum efficiencies thereof were respectively 2.6-fold and 2-fold of that of ICG.

[4] = Fluorescence in blood (surface fluorescence spectrum); conditions: 100 μM in blood (human), 25° C., 760 nm excitation
Method: The fluorescence of ICG and the cyclodextrin-bonded indocyanine compounds of the present invention (the chemical formulae 16, 20, 21, and 23 to 25) in blood was studied. ICG and the cyclodextrin-bonded indocyanine compounds of the present invention (the chemical formulae 16, 20, 21, and 23 to 25) were respectively dissolved in blood (human) in a concentration of 100 μM. The resulting blood was put in a triangular quartz cell at 25° C., which was excited with 760 nm excitation light (bandpass: 10 nm), and a surface fluorescence spectrum (bandpass: 10 nm) was measured. […] The cyclodextrin-bonded indocyanine compounds of the present invention, in particular, the compounds represented by the chemical formula 16 and the chemical formula 20 had respectively fluorescence intensities of 270 (arbitrary unit) and 190 (arbitrary unit), which were 4.7-fold and 3.3-fold of that of ICG. It could be considered that this is caused because the emission of light from the cyclodextrin-bonded indocyanine compound of the present invention was not hindered in the living body.

[5] = Observation of distribution in rat body (caudate vein administration, PDE camera); type: in vivo
Method: Left is a monochrome image through visible light, and right is a fluorescence image.
After Wistar male rat (9-week old, a body weight of 350 g) was ether-anesthetized, 0.1 mL of Nembutal was intraperitoneally administered using a 26 G needle to perform the anesthesia. A base of the rat's tail was wrapped tightly with a rubber band to prevent the flow of blood, and the caudate vein was secured with a 24 G Therflow needle and a peripheral line were secured by inserting a three-way stopcock and an extension tube. The rat was fixed on a flat stand in a supine position (FIG. 8). A PDE camera unit manufactured by Hamamatsu Photonics K.K. was set at exactly 16 cm from the body of the rat. When the whole body was extensively photographed, the distance was 20 cm. The observation range was an about range shown by black dots in FIG. 8. After that, ICG, TK1 or TK2 was administered in a concentration of 1 mM from the peripheral line secured. The administration amount was 0.1 mL. After 20 minutes from the administration, the fluorescence state of the abdominal cavity which was opened is shown in FIG. 9, and the fluorescence state (images at the maximum luminance) of the dorsal region of foot was shown in FIG. 12.
In addition, a time reaching the maximum fluorescence intensity value (Imax), Imax value and a time at which the value reached a half of the Imax value (t1/2) are shown in Table 1.

[6] = Observation at blood vessel level (cremaster skin flap); type: in vivo; conditions: rat, exposed blood vessel
Method: ICG or TK1 was administered in a state in which a blood vessel of a rat was directly exposed and observed by methods disclosed in Non Patent Documents 7 and 8 (FIG. 15), and a state of a cremaster skin flap after the exposure is shown in FIG. 16. ICG or TK1 was administered in the state in which the blood vessel was exposed, and the observation was performed. As a result, it was observed that ICG was unevenly distributed in the blood vessel, compared to TK1. […] In order to more precisely study it, photomicrographs of the blood vessel after the administration are shown in FIG. 17 (ICG) and FIG. 18 (TK1).

[7] = Luminance of dorsalis pedis in λ-carrageenin edema rats (acute inflammation experiment); type: in vivo, rat
Method: Rats (male, Wister rat) which were 10-week old and about 350 g were selected as a test animal (n=4). The rat was generally anesthetized with isoflurane, and 0.1 mL of 0.5% […] was injected to a left posterior footpad using a 26 G needle, thus resulting quick generation of edema on the foot. After 15 minutes, a volume of the left foot of the rat was measured using a rat footpad volume-measuring device (MK-101 CMP PLETHYSMOMETER manufactured by Muromachi Kikai Co., Ltd.).
After that, the isoflurane was off and the emergence of the rat was confirmed. After Von Frey test was performed, the rat was generally anesthetized with isoflurane again. […]
A moiety (ROI) to be measured by the PDE camera was set at a central part of the dorsalis pedis and light was turned off. […] After that, luminance was measured for one minute at 5 minute-intervals and the measurement was continued until 120 minutes from the infusion. […]
After 7 days, a Von Frey test was performed and then the rat was quickly generally anesthetized with isoflurane, and the volume of the left foot of the rat was measured by using the rat footpad volume-measuring device. […] After that, luminance was measured for one minute at 5 minute-intervals and the measurement was continued until 120 minutes from the infusion. […]

[8] = Ischemia model of lower limbs (ligation of right femoral artery); type: in vivo; conditions: rat
Text: As apparent from the image view 12, the state in which the fluorescence was emitted in accordance with the blood flow was clear in the dorsal region of foot.

[9] = in DMSO, at 25° C.; cited from earlier work
[10] = cited from earlier work
[11] = rat dorsal region of foot, 1 mM 0.1 mL caudate vein

**Q.** Which results are given for `CC1(C)C(/C=C/C=C/C=C/C=C2\N(CCCCS(=O)(=O)O)c3ccc4ccccc4c3C2(C)C)=[N+](CCCCS(=O)(=O)[O-])c2ccc3ccccc3c21` [ICG, indocyanine green]?
**A.** dissolving in water or physiological saline (need for vibration-stirring) [1]: About one minute violent vibration-stirring was necessary; molecule association called H-aggregation [2]: occurred; fluorescence quantum efficiency [3]: 0.021; fluorescence intensity at the maximum fluorescence wavelength [4]: 58 arbitrary unit; organ of main accumulation ([5]; Wistar rat, 1 mM 0.1 mL caudate vein, 20 minutes after administration, abdominal cavity opened): mainly accumulated in the liver; half-life ([5]; male, Wistar, intravenous, 0.1 mL of 1 mM solution, rat dorsal region of foot, 1 mM 0.1 mL caudate vein, read-out: t1/2 (time at which the value reached a half of the Imax value)): 2.3 min; time after administration until fluorescence intensity was reduced to about initial value ([5]; rat dorsal region of foot): less than 10 minutes; Imax* (maximum fluorescence intensity value) [5, 11]: 124; Time for Imax (time reaching the maximum fluorescence intensity value) [5, 11]: 0.5 min; transfer from the blood vessel into the interstitial tissue fluid [6]: hardly transferred from the blood vessel into the interstitial tissue fluid; time for luminance in ROI to decrease to the base line ([7]; rat dorsalis pedis, 0.1 mL caudate vein): about 10 minutes; luminance change of dorsalis pedis, λ-carrageenin group versus control ([7]; rat, dye infused after λ-carrageenin injection, interstitial tissue phase): the difference in the luminance was not observed; fluorescence in the ischemia area [8]: the fluorescence was not observed in the ischemia area; fluorescence efficiency (reference value) [9]: 0.13; organ of accumulation (as already known) [10]: highly accumulated in liver
